# How the values were obtained:
# [1] = test system: rat; settings: Combined chronic toxicity/carcinogenicity, fischer, Oral, Gavage/Intubation, dose end: 103 week, group: systemic
# [2] = test system: mouse; settings: Combined chronic toxicity/carcinogenicity, b6c3f1, Oral, Gavage/Intubation, dose end: 103 week, group: systemic
# [3] = test system: rabbit; settings: Prenatal developmental toxicity study, new zealand white, Oral, Gavage/Intubation, dose end: 18 GD
# [4] = test system: dog; settings: Chronic toxicity, beagle, Oral, Capsule, dose end: 28 day, group: systemic
# [5] = test system: rat; settings: Prenatal developmental toxicity study, sprague dawley, Oral, Gavage/Intubation, dose end: 19 GD
# [6] = test system: rabbit; settings: Prenatal developmental toxicity study, new zealand white, Oral, Gavage/Intubation, dose end: 28 GD
# [7] = test system: rat; settings: Chronic toxicity, fischer, Oral, Feed, dose end: 24 month, group: systemic
# [8] = test system: rabbit; settings: Prenatal developmental toxicity study, new zealand white, Oral, Gavage/Intubation, dose end: 19 GD
# [9] = test system: rat; settings: Multigenerational reproductive toxicity study, sprague dawley, Oral, Feed, dose end: 2 generation
# [10] = test system: mouse; settings: Carcinogenicity, cd1, Oral, Feed, dose end: 113 week, group: systemic
# [11] = test system: mouse; settings: Carcinogenicity, b6c3f1, Oral, Feed, dose end: 104 week, group: systemic
# [12] = test system: rat; settings: Combined chronic toxicity/carcinogenicity, sprague dawley, Oral, Feed, dose end: 104 week, group: systemic
# [13] = test system: dog; settings: Chronic toxicity; beagle; Oral; Capsule; dose end: 12 month; group: systemic; systemic / in life observation / body weight / body weight gain + systemic / clinical chemistry / albumin / albumin + systemic / clinical …
# [14] = systemic / pathology microscopic / blood / leukemia mononuclear + systemic / in life observation / body weight / body weight
# [15] = systemic / pathology microscopic / liver / vacuolization cytoplasmic
# [16] = systemic / pathology microscopic / liver / vacuolization cytoplasmic + systemic / in life observation / body weight / body weight
# [17] = group: developmental, developmental / developmental malformation / bone / [other] + developmental / developmental malformation / bone / misshapen fontanel + …
# [18] = group: maternal, reproductive / reproductive performance / aborted / aborted + reproductive / reproductive performance / resorptions / resorptions + systemic…
# [19] = systemic / in life observation / clinical signs / emesis + systemic / organ weight / liver / absolute + systemic / organ weight / brain / …
# [20] = group: developmental, developmental / developmental malformation / bone / incomplete ossification + developmental / developmental malformation / bone / misaligned…
# [21] = group: maternal, systemic / in life observation / body weight / body weight gain + systemic / in life observation / clinical signs / respiration (rales)
# [22] = group: maternal, systemic / in life observation / body weight / body weight gain + systemic / in life observation / clinical signs / respiration (rales) + …
# [23] = group: developmental, developmental / developmental malformation / bone / domed head + developmental / developmental malformation / bone / misshapen fontanel + …
# [24] = group: maternal, systemic / in life observation / food consumption / food consumption
# [25] = systemic / pathology microscopic / stomach / hyperkeratosis
# [26] = systemic / pathology microscopic / stomach / hyperkeratosis + systemic / in life observation / body weight / body weight gain + systemic / …
# [27] = group: developmental, developmental / developmental malformation / bone / unossified
# [28] = group: developmental, developmental / developmental malformation / bone / unossified + developmental / developmental malformation / bone / delayed ossification + …
# [29] = group: maternal, systemic / in life observation / body weight / body weight gain + systemic / in life observation / food consumption / food consumption + …
# [30] = group: offspring, systemic / in life observation / body weight / offspring (pup) weight
# [31] = group: parental, systemic / in life observation / body weight / body weight + systemic / in life observation / body weight / body weight gain + systemic / in…
# [32] = group: reproductive, reproductive / reproductive performance / fertility / fertility
# [33] = systemic / hematology / hematocrit (hct) / hematocrit (hct) + systemic / in life observation / clinical signs / weakness + systemic / …
# [34] = systemic / pathology microscopic / stomach / hyperkeratosis + systemic / pathology microscopic / intestine small / carcinoma + systemic / …
# [35] = systemic / pathology microscopic / stomach / hyperkeratosis + systemic / pathology microscopic / intestine small / hyperplasia + systemic / …
# [36] = systemic / pathology microscopic / stomach / acanthosis + systemic / pathology microscopic / stomach / erosion + systemic / pathology …
# [37] = systemic / pathology microscopic / testes / interstitial cell tumor nos + systemic / pathology microscopic / thyroid gland / adenoma/…
compound,measurement,setting,value
C=CCN=C=S [Allyl isothiocyanate],LOAEL,[1]; systemic / in life observation / body weight / body weight,25 mg/kg/day
same,NOAEL,[1]; systemic / in life observation / body weight / body weight + systemic / pathology microscopic / blood / leukemia mononuclear + systemic / …,12 mg/kg/day
same,LEL,[1]; [14],12 mg/kg/day
same,NEL,[1]; [14],< 12 mg/kg/day
same,LEL,[2]; [15],12 mg/kg/day
same,NEL,[2]; [15],< 12 mg/kg/day
same,LOAEL,[2]; [16],> 25 mg/kg/day
same,NOAEL,[2]; [16],≥ 25 mg/kg/day
O=C1c2ccccc2C(=O)N1SC(Cl)(Cl)Cl [Folpet],LEL,[3]; [17],60 mg/kg/day
same,LOAEL,[3]; [17],> 60 mg/kg/day
same,NEL,[3]; [17],< 60 mg/kg/day
same,NOAEL,[3]; [17],≥ 60 mg/kg/day
same,LEL,[3]; [18],60 mg/kg/day
same,LOAEL,[3]; [18],> 60 mg/kg/day
same,NEL,[3]; [18],< 60 mg/kg/day
same,NOAEL,[3]; [18],≥ 60 mg/kg/day
same,LOAEL,[4]; systemic / in life observation / body weight / body weight gain + systemic / in life observation / body weight / body weight,60 mg/kg/day
same,NOAEL,[4]; systemic / in life observation / body weight / body weight gain + systemic / in life observation / body weight / body weight + systemic / in…,20 mg/kg/day
same,LEL,[4]; [19],20 mg/kg/day
same,NEL,[4]; [19],< 20 mg/kg/day
same,LEL,[5]; [20],360 mg/kg/day
same,LOAEL,[5]; [20],360 mg/kg/day
same,NEL,[5]; [20],60 mg/kg/day
same,NOAEL,[5]; [20],60 mg/kg/day
same,LEL,[5]; [21],60 mg/kg/day
same,LOAEL,[5]; [21],60 mg/kg/day
same,NEL,[5]; [22],10 mg/kg/day
same,NOAEL,[5]; [22],10 mg/kg/day
same,LEL,[6]; [23],20 mg/kg/day
same,LOAEL,[6]; [23],20 mg/kg/day
same,NEL,[6]; [23],10 mg/kg/day
same,NOAEL,[6]; [23],10 mg/kg/day
same,LEL,[6]; [24],20 mg/kg/day
same,LOAEL,[6]; [24],20 mg/kg/day
same,NEL,[6]; [24],10 mg/kg/day
same,NOAEL,[6]; [24],10 mg/kg/day
same,LEL,[7]; [25],81 mg/kg/day
same,LOAEL,[7]; [25],81 mg/kg/day
same,NEL,[7]; [26],12 mg/kg/day
same,NOAEL,[7]; [26],12 mg/kg/day
same,LEL,[8]; [27],40 mg/kg/day
same,LOAEL,[8]; [27],40 mg/kg/day
same,NEL,[8]; [28],10 mg/kg/day
same,NOAEL,[8]; [28],10 mg/kg/day
same,LOAEL,"[8]; group: maternal, systemic / in life observation / body weight / body weight gain + systemic / in life observation / food consumption / food consumption",160 mg/kg/day
same,LEL,[8]; [29],160 mg/kg/day
same,NEL,[8]; [29],40 mg/kg/day
same,NOAEL,[8]; [29],40 mg/kg/day
same,LEL,[9]; [30],180 mg/kg/day
same,LOAEL,[9]; [30],180 mg/kg/day
same,NEL,[9]; [30],40 mg/kg/day
same,NOAEL,[9]; [30],40 mg/kg/day
same,LOAEL,[9]; [31],180 mg/kg/day
same,NEL,[9]; [31],10 mg/kg/day
same,NOAEL,[9]; [31],40 mg/kg/day
same,LEL,"[9]; group: parental, systemic / in life observation / food consumption / food consumption",40 mg/kg/day
same,LEL,[9]; [32],180 mg/kg/day
same,LOAEL,[9]; [32],180 mg/kg/day
same,NEL,[9]; [32],40 mg/kg/day
same,NOAEL,[9]; [32],40 mg/kg/day
same,LEL,[10]; [33],93 mg/kg/day
same,NEL,[10]; [33],< 93 mg/kg/day
same,LOAEL,[10]; systemic / pathology microscopic / intestine small / hyperplasia,1280 mg/kg/day
same,NOAEL,[10]; systemic / pathology microscopic / intestine small / hyperplasia + systemic / pathology microscopic / intestine small / adenocarcinoma + …,502 mg/kg/day
same,LOAEL,[11]; [34],150 mg/kg/day
same,NOAEL,[11]; [34],< 150 mg/kg/day
same,LEL,[11]; [35],150 mg/kg/day
same,NEL,[11]; [35],< 150 mg/kg/day
same,LOAEL,[12]; [36],35 mg/kg/day
same,NOAEL,[12]; [36],9 mg/kg/day
same,LEL,[12]; [37],9 mg/kg/day
same,NEL,[12]; [37],< 9 mg/kg/day
same,LEL,[13],60 mg/kg/day
same,LOAEL,[13],60 mg/kg/day
same,NEL,[13],10 mg/kg/day
same,NOAEL,[13],10 mg/kg/day

# — EPA's ToxRefDB 2
